Patent US6995123B2, “Use of multifunctional surface active agents to clean contact lenses” (Alcon, Inc., priority 2002, dated 2006)

Test system: protein deposits (i.e., lysozyme) from Group IV lenses
Test: In vitro cleaning efficacy: removal of lysozyme deposits from soiled contact lenses
Method: The formulations shown in Table 1 below were tested to evaluate the ability of the multifunctional surfactants described above to remove protein deposits (i.e., lysozyme) from Group IV lenses. The cleaning performance was compared to conventional cleaning agents. The test procedures are described below, and the cleaning results are set forth at the bottom of Table 1.
The materials and methods utilized in the evaluation were as follows: 1.311 g of monobasic sodium phosphate (monohydrate), 5.74 g of dibasic sodium phosphate (anhydrous), and 9.0 g of sodium chloride were dissolved in deionized water and the volume was brought to 1000 mL with deionized water after completely dissolving the solutes and adjusting pH (if needed). The final concentrations of sodium phosphate and sodium chloride were 0.05 M and 0.9 w/v %, respectively. The final pH was 7.4.
A 1.0-mg/mL lysozyme solution was prepared by dissolving 500 mg of lysozyme in 500-mL of phosphate buffered saline.
A lens extraction solution was prepared by mixing 1.0 mL of trifluoroacetic acid with 500-mL of acetonitrile and 500 mL of deionized water. The pH of the solution ranged from 1.5 to 2.0.
Each lens was immersed with 5 mL of lysozyme solution in a Wheaton glass sample vial. The vial was closed with a plastic snap cap and incubated in a constant temperature water bath at 37° C. for 24 hours. After incubation, the deposited lens was removed from the vial and rinsed by dipping into three consecutive beakers containing 50 mL of deionized water to remove any excess of the deposition solution. The lens was then blotted gently with a laboratory towel (Kaydry EX-L, from Kimberly-Clark). These lenses were used as a soiled lenses for the evaluation of cleaning efficacy of the test solutions.
The lens was immersed in a Wheaton glass sample vial containing 5 mL of UNISOL® 4 saline solution. The vial was closed with a plastic snap cap held secure with a metal clasp to prevent the cap from popping off during the thermal treatment. […]
Each soiled lens was soaked and shaken with 5 mL of the test solution in a scintillation vial at room temperature for 12 hours. […] The clean lenses were then subjected to the extraction procedure described below, and the amount of lysozyme present in the soaking solutions was measured with a fluorescence spectrophotometer. […]
A quantitative determination of the amount of lysozyme in the lens extract solution and lens soaking solutions was carried out by a fluorescence spectrophotometer interfaced with an autosampler and a computer. The fluorescence intensity of a 2 mL aliquot from each sample solution was measured by setting the excitation/emission wavelength at 280 nm/346 nm with excitation/emission slits of 2.5 nm/10 nm, respectively, and the sensitivity of the photomultiplier was set at 950 volts. […]

For `CCCCCCCCCCCC(=O)N(CCN(CC(=O)[O-])CC(=O)[O-])CC(=O)[O-].[Na+].[Na+].[Na+]` [LED3A, lauroyl ethylene diaminetriacetate], the cleaning efficacy (LED3A 0.03% in borate buffered vehicle containing 0.6% sodium citrate) was 29.5%, the cleaning efficacy (LED3A 0.075% in borate buffered vehicle containing 0.6% sodium citrate) was 47.5% and the cleaning efficacy (LED3A 0.1% in borate buffered vehicle containing 0.6% sodium citrate) was 56.0%. It also gave a cleaning efficacy (LED3A 0.2% in borate buffered vehicle containing 0.6% sodium citrate) of 60.2%.
